Reference: patent US12605346B2, “Composition containing curcumin compound, and method for producing same” (THERABIOPHARMA INC., priority 2020, dated 2026)

Experiments:
[1] = Plasma curcumin concentration (AUC and Cmax) after administration to rats; format: in vivo
Method: The plasma curcumin concentration was measured by the following method using heparin plasma obtained by collecting about 0.2 mL of blood from the jugular vein of test animals (rats) without anesthesia at 0.25 hours, 0.5 hours, 1 hour, 2 hours, 4 hours, and/or 6 hours after start of administration.
To 20 μL of the collected plasma, 100 μL of 0.1 M acetate buffer (pH 5.0) and 10 μL of β-glucuronidase solution (about 68,000 units/mL) were added. The mixture was kept at 37° C. for 1 hour. Subsequently, 10 μL of 50% (v/v) methanol containing 20 ng/mL of Mepronil, an internal standard, and 0.5 mL of chloroform were added. The mixture was stirred with a vortex mixer for 1 minute and then mixed with an ultrasonic generator for 15 minutes to perform an extraction process. The extraction process liquid was separated into a chloroform layer and an aqueous layer by centrifugation (13,000×g, 5 min, room temperature). The separated aqueous layer was further subjected to an extraction process in which extraction was performed by adding chloroform in the same manner as described above. Next, the chloroform layer was collected and dried to solid by distilling the solvent off using a vacuum centrifugal concentrator, and 100 μL of 50% (v/v) methanol was added thereto, followed by centrifugation (13,000×g, 5 min, room temperature). The supernatant was then collected.
The plasma curcumin concentration was measured by analyzing 2 μL of the prepared supernatant using LC-MS/MS (available from Bruker). […]
The calibration curve used to quantitatively determine the curcumin content in the sample was obtained by performing measurement under the same conditions as described above using various standard solutions (curcumin concentration: 0.9 to 225 ng/mL) prepared by adding 10 μL of a 50% ethanol solution containing 20 ng/mL of Mepronil to 90 μL of a 50% (v/v) methanol solution (curcumin standard solution) containing 1.0, 2.0, 3.9, 7.8, 15.6, 31.3, 62.5, 125, or 250 ng/mL of curcumin.

[2] = normal conditions (temperature 20° C. to 35° C., humidity 40% to 70%) till 6 months; cited from earlier work

Row | Cmax ([1]; rat, oral, plasma curcumin after β-glucuronidase treatment) [ng/mL] | AUC ([1]; rat, oral, plasma curcumin after β-glucuronidase treatment, 0 to 6 hrs) [ng·h/mL] | Cmax relative to Comparative Example 1 (value in parentheses) ([1]; ratio to commercial curcumin formulation (Comparative Example 1 = 1.0)) [times] | SMILES | Storage stability of sample stored in a container [2]
1 | 85 | 292 | 0.84 | COc1cc(/C=C/C(=O)/C=C(O)/C=C/c2ccc(O)c(OC)c2)ccc1O [Comparative Example 2, curcumin] | 
2 |  |  |  | COc1cc(/C=C/C(=O)/C=C(O)/C=C/c2ccc(O)c(OC)c2)ccc1O [amorphous curcumin, curcumin] | generally stable
